Laboratory results from patent US10287267B2, “Isoquinolin-3-yl carboxamides and preparation and use thereof” (Samumed, LLC, priority 2016, dated 2019).
Read-outs that look alike come from different tables or passages of the source.

Experiments:
[1] = system: Wnt pathway (Sp5-Luc reporter, TCF/LEF binding sites) in SW480 colon carcinoma cells; assay: Screening assay for Wnt activity: Sp5-Luc reporter gene assay; format: cell-based, human; conditions: Homo sapiens; for EC50: Sp5-Luc reporter, SW480 cells, 36 to 48 hours; for inhibition at 10 µM: SW480, read-out: percent inhibition at 10 μM;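 as to all read-outs here: firefly luciferase luminescence read in stably transduced SW480 cells carrying the Sp5 promoter reporter with eight TCF/LEF sites, compounds given in 0.1% DMSO final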
Description: The screening assay for Wnt activity is described as follows.
Following incubation, 15 μl of BriteLite Plus luminescence reagent (Perkin Elmer) was added to each well of the 384-well assay plates. The plates were placed on an orbital shaker for 2 min and then luminescence was quantified using the Envision (Perkin Elmer) plate reader.

[2] = system: Tau phosphorylation at Ser396 (pSer396); assay: Tau phosphorylation assay (pSer396 ELISA / western blot) in SH-SY5Y cells; format: cell-based, human; conditions: Homo sapiens, read-out: pSer396 Tau EC50;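 also: EC50 for reduction of Tau pSer396 in lysed cells, measured by colorimetric ELISA or chemiluminescent western blot, both using the same pSer396 antibody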
[3] = target: recombinant GSK3β kinase (Homo sapiens (Human), UniProt P49841); assay: GSK3β kinase assay (Ser/Thr 09 peptide Z-lyte FRET); format: biochemical; conditions: 46 μM ATP, 1 h room temperature;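 also: kinase activity read as coumarin to fluorescein emission ratio, 11-point threefold dilutions from 10 µM to 0.0003 µM in duplicate, unphosphorylated and phosphorylated peptide as 0% and 100% controls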
recombinant GSK3β kinase, sequence (P49841 whole entry): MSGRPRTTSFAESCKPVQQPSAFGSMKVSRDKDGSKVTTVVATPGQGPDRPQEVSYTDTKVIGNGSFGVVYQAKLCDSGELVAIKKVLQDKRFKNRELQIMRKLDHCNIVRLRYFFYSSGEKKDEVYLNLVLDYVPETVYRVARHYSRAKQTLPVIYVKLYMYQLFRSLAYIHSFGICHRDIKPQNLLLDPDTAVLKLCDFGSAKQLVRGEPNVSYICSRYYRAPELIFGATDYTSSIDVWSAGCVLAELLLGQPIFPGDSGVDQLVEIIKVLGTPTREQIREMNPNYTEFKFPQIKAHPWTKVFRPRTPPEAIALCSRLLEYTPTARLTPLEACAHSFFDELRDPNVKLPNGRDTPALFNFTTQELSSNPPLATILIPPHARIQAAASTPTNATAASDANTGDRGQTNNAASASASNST

[4] = system: SW480 colon carcinoma cells; assay: Cell viability assay (CellTiter-Glo); format: cell-based, human; conditions: Homo sapiens; for EC50: 96 h, SW480 cells, CellTiter-Glo, four days incubation; for inhibition at 10 µM: SW480, read-out: percent inhibition at 10 μM
[5] = target: recombinant DYRK1A kinase (Homo sapiens (Human), UniProt Q13627); assay: DYRK1A kinase assay (Ser/Thr 18 peptide Z-lyte FRET); format: biochemical; conditions: 30 μM ATP, 1 h room temperature;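 also: Read-out is the coumarin to fluorescein emission ratio, referenced to unphosphorylated (0%) and phosphorylated (100%) Ser/Thr 18 peptide controls, values from dose-response curves by non-linear regression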
[6] = system: IL-6; assay: IL-6 inhibition in LPS-stimulated human peripheral blood mononuclear cells (HTRF); format: cell-based; conditions: Homo sapiens, PBMC; for inhibition at 10 µM: read-out: percent value in parentheses beside EC50 >10 μM; for EC50: Table 9, huPBMCs, LPS 50 ng/mL, 22 hours, dose-response starting from 10 μM;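 as to all read-outs here: IL-6 detected by HTRF with an XL665- and Cryptate-labelled anti-IL-6 antibody pair, samples run in duplicate, EC50 obtained from a four-parameter Levenberg-Marquardt curve fit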
Description: After 22 hour incubation, a mixture of anti-IL6 XL665 and anti-IL-6 Cryptate diluted in reconstitution buffer (Catalog #62IL6PEC, Cisbio Inc., Bedford, Mass.) was added to each well. […] All samples were processed in duplicate. […] EC50 was determined using software generated by Dotmatics Limited (Windhill Bishops Stortford Herts, UK) using the Levenberg-Marquardt 4 parameter fitting procedure with finite different gradients.

[7] = SH-SY5Y cells, overnight (16-18 h) exposure

SMILES | EC50 [1] | EC50 ([2]; SH-SY5Y) | EC50 [3] | EC50 [4] | inhibition at 10 µM [4] | EC50 [5] | inhibition at 10 µM [6] | EC50 [6] | inhibition at 10 µM [1] | EC50 [2, 7]
Cc1nnc(-c2ccc3cnc(NC(=O)CN4C5CCC4CC5)cc3c2)s1 [Compound 959, 2-(7-Azabicyclo[2.2.1]heptan-7-yl)-N-(6-(5-methyl-1,3,4-thiadiazol-2-yl)isoquinolin-3-yl)acetamide] | 4240 nM | 443 nM | 45 nM | > 10000 nM | 45% | 15.4 nM | 6.1% | > 10000 nM | – | –
Cc1nnc(-c2ccc3cnc(NC(=O)CN4C5CCC4COC5)cc3c2)s1 [Compound 962, 2-(3-Oxa-8-azabicyclo[3.2.1]octan-8-yl)-N-(6-(5-methyl-1,3,4-thiadiazol-2-yl)isoquinolin-3-yl)acetamide] | > 10000 nM | 447 nM | 57 nM | > 10000 nM | 30.9% | 23.6 nM | 9.6% | > 10000 nM | 45% | –
CN1CCC(C(=O)Nc2cc3cc(-c4cnn(C)c4)c(Cl)cc3cn2)CC1 [Compound 1027, N-(7-Chloro-6-(1-methyl-1H-pyrazol-4-yl)isoquinolin-3-yl)-1-methylpiperidine-4-carboxamide] | 875 nM | – | 3070 nM | 488 nM | – | 50 nM | 0% | > 10000 nM | – | 2200 nM
Cc1ncc(-c2ccc3cnc(NC(=O)CN4CCCCC4)cc3c2)o1 [Compound 1028, N-(6-(2-Methyloxazol-5-yl)isoquinolin-3-yl)-2-(piperidin-1-yl)acetamide] | 3870 nM | – | 104 nM | 3520 nM | – | 22.5 nM | – | 1930 nM | – | 536 nM
Cn1cc(-c2ccc3cnc(NC(=O)CCN4CCOCC4)cc3c2)cn1 [Compound 1034, N-(6-(1-Methyl-1H-pyrazol-4-yl)isoquinolin-3-yl)-3-morpholinopropanamide] | 2040 nM | – | 27 nM | 3240 nM | – | 1.9 nM | – | 3320 nM | – | 430 nM
Cn1cc(-c2ccc3cnc(NC(=O)[C@H]4C[C@H](N5CCOCC5)C4)cc3c2)cn1 [Compound 1035, trans-N-(6-(1-Methyl-1H-pyrazol-4-yl)isoquinolin-3-yl)-3-morpholinocyclobutane-1-carboxamide] | 1370 nM | – | 10 nM | 2460 nM | – | 2.6 nM | – | 1030 nM | – | 129 nM
CN1CCC(N(C)C(=O)Nc2cc3cc(-c4cnn(C)c4)ccc3cn2)CC1 [Compound 1037, 1-methyl-3-(6-(1-methyl-1H-pyrazol-4-yl)isoquinolin-3-yl)-1-(1-methylpiperidin-4-yl)urea] | 3640 nM | – | 1920 nM | > 10000 nM | 32.7% | 10.2 nM | – | 7520 nM | – | > 10000 nM
CNc1ncc(-c2ccc3cnc(NC(=O)C4CCNCC4)cc3c2)s1 [Compound 1040, N-(6-(2-(Methylamino)thiazol-5-yl)isoquinolin-3-yl)piperidine-4-carboxamide] | 1210 nM | – | 98 nM | 2680 nM | – | 4.8 nM | – | 1180 nM | – | 1600 nM
CNc1ncc(-c2ccc3cnc(NC(=O)C4CCN(C)CC4)cc3c2)s1 [Compound 1041, 1-Methyl-N-(6-(2-(methylamino)thiazol-5-yl)isoquinolin-3-yl)piperidine-4-carboxamide] | 776 nM | – | 58 nM | 2760 nM | – | 3.3 nM | – | 941 nM | – | 1300 nM
CCN(CC)c1ncc(-c2ccc3cnc(NC(=O)CN4CCC(F)CC4)cc3c2)s1 [Compound 1047, N-(6-(2-(Diethylamino)thiazol-5-yl)isoquinolin-3-yl)-2-(4-fluoropiperidin-1-yl)acetamide] | > 10000 nM | – | 4740 nM | > 10000 nM | 41.7% | 463 nM | 4.5% | > 10000 nM | 32.6% | > 10000 nM
CCN(CC)c1ncc(-c2ccc3cnc(NC(=O)CN4CCN(C)CC4)cc3c2)s1 [Compound 1048, N-(6-(2-(Diethylamino)thiazol-5-yl)isoquinolin-3-yl)-2-(4-methylpiperazin-1-yl)acetamide] | 9380 nM | – | 5810 nM | 4060 nM | – | 541 nM | 4.3% | > 10000 nM | – | 4700 nM
Cc1nnc(-c2ccc3cnc(NC(=O)CN4CCCOCC4)cc3c2)s1 [Compound 1049, N-(6-(5-Methyl-1,3,4-thiadiazol-2-yl)isoquinolin-3-yl)-2-(1,4-oxazepan-4-yl) acetamide] | 2540 nM | – | 12 nM | > 10000 nM | 31.3% | 6.9 nM | 10.4% | > 10000 nM | – | 319 nM
CC(F)(F)CN1CCC(C(=O)Nc2cc3cc(-c4cnco4)ccc3cn2)CC1 [Compound 1057, 1-(2,2-Difluoropropyl)-N-(6-(oxazol-5-yl)isoquinolin-3-yl)piperidine-4-carboxamide] | > 10000 nM | – | 97 nM | 4500 nM | – | 2.7 nM | – | 3200 nM | 5% | 342 nM
Cc1ncc(-c2ccc3cnc(NC(=O)[C@H]4C[C@H](N5CCOCC5)C4)cc3c2)o1 [Compound 1061, trans-N-(6-(2-Methyloxazol-5-yl)isoquinolin-3-yl)-3-morpholinocyclobutane-1-carboxamide] | 1610 nM | – | 8 nM | 1600 nM | – | 4.3 nM | – | 947 nM | – | 58 nM
Cc1ncc(-c2ccc3cnc(NC(=O)CN4CCOCC4)cc3c2)o1 [Compound 1067, N-(6-(2-Methyloxazol-5-yl)isoquinolin-3-yl)-2-morpholinoacetamide] | > 10000 nM | – | 67 nM | > 10000 nM | 43.1% | 18.8 nM | – | 8940 nM | 48.7% | 729 nM
Cc1ncc(-c2ccc3cnc(NC(=O)CCN4CCOCC4)cc3c2)o1 [Compound 1068, N-(6-(2-Methyloxazol-5-yl)isoquinolin-3-yl)-3-morpholinopropanamide] | 3720 nM | – | 36 nM | > 10000 nM | 46% | 5.3 nM | – | 3400 nM | – | 689 nM
CN(C)c1nnc(-c2ccc3cnc(NC(=O)C4CCNCC4)cc3c2)o1 [Compound 1075, N-(6-(5-(Dimethylamino)-1,3,4-oxadiazol-2-yl)isoquinolin-3-yl)piperidine-4-carboxamide] | 2540 nM | – | 15 nM | 5280 nM | – | 13.7 nM | – | 3270 nM | – | 709 nM
COC1CCN(CC(=O)Nc2cc3cc(-c4cnn(C)c4)ccc3cn2)CC1 [Compound 1077, 2-(4-Methoxypiperidin-1-yl)-N-(6-(1-methyl-1H-pyrazol-4-yl)isoquinolin-3-yl)acetamide] | 5190 nM | – | 32 nM | 5250 nM | – | 4.5 nM | – | 3170 nM | – | 425 nM
Cn1cc(-c2ccc3cnc(NC(=O)CN4CCC(O)CC4)cc3c2)cn1 [Compound 1078, 2-(4-Hydroxypiperidin-1-yl)-N-(6-(1-methyl-1H-pyrazol-4-yl)isoquinolin-3-yl)acetamide] | 4030 nM | – | 70 nM | 4410 nM | – | 6 nM | – | 3240 nM | – | 458 nM
CC(C)CN1CCCC(C(=O)Nc2cc3cc(-c4cnn(C)c4)ccc3cn2)CC1 (centres unmarked) [Compound 1079, 1-Isobutyl-N-(6-(1-methyl-1H-pyrazol-4-yl)isoquinolin-3-yl)azepane-4-carboxamide] | 1430 nM | – | 48 nM | 2600 nM | – | 5.7 nM | – | 1210 nM | – | 190 nM
CN1CCCC(C(=O)Nc2cc3cc(-c4cnn(C)c4)ccc3cn2)CC1 (centres unmarked) [Compound 1080, 1-Methyl-N-(6-(1-methyl-1H-pyrazol-4-yl)isoquinolin-3-yl)azepane-4-carboxamide] | 1220 nM | – | 56 nM | 1380 nM | – | 3.2 nM | – | 1070 nM | – | 251 nM
Cc1ncc(-c2ccc3cnc(NC(=O)[C@H]4CC[C@H](N(C)C)CC4)cc3c2)o1 [Compound 1082, trans-4-(Dimethylamino)-N-(6-(2-methyloxazol-5-yl)isoquinolin-3-yl) cyclohexane-1-carboxamide] | 9900 nM | – | 210 nM | 7100 nM | – | 10.2 nM | – | 2930 nM | – | 1100 nM
CN1CCN(CC23CC(C(=O)Nc4cc5cc(-c6cnn(C)c6)ccc5cn4)(C2)C3)CC1 [Compound 1088, N-(6-(1-Methyl-1H-pyrazol-4-yl)isoquinolin-3-yl)-3-((4-methylpiperazin-1-yl)methyl)bicyclo[1.1.1]pentane-1-carboxamide] | 7400 nM | – | 937 nM | 9190 nM | – | 9.3 nM | – | 5980 nM | – | 8600 nM
